According to ChEMBL document CHEMBL4340530, “Peptide-based covalent inhibitors of MALT1 paracaspase” (Bioorg Med Chem Lett, 2019):
Activity calls are given as the source filed them. The rule behind the calls is not given here.

How the values were obtained:
OCI-Ly3 [1] = assay: Antiproliferative activity against human OCI-LY3 cells assessed as growth inhibition treated every 48 hrs measured after 96 hrs by CellTiter-Glo assay; type: functional
[2] = target: Cathepsin B (Homo sapiens) (UniProt P07858); assay: Inhibition of cathepsin B (unknown origin) at 10 uM relative to control
[3] = target: T1, Cathepsin K (Homo sapiens) (UniProt P43235); assay: Inhibition of cathepsin K (unknown origin) at 10 uM relative to control
T1 sequence (whole entry): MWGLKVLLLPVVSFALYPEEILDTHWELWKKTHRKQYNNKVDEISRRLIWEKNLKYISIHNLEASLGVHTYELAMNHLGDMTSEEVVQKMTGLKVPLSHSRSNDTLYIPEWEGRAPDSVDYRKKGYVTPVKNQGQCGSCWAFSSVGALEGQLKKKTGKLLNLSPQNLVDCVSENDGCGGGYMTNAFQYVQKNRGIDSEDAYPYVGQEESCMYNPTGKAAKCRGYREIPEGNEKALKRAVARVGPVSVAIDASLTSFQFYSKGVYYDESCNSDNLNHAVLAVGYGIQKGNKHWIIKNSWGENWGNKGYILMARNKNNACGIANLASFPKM

[4] = target: Procathepsin L (Homo sapiens) (UniProt P07711); assay: Inhibition of cathepsin L (unknown origin) at 10 uM relative to control
Sequence of Procathepsin L (Homo sapiens) (P07711 114-333 limits assumed): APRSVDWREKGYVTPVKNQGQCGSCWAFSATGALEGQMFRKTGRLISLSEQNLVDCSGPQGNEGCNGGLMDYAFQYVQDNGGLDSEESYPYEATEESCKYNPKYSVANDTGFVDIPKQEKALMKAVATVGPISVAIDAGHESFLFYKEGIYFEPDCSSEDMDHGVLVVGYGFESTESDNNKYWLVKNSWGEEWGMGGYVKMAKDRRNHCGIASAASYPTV

[5] = target: Cathepsin S (Homo sapiens) (UniProt P25774); assay: Inhibition of cathepsin S (unknown origin) at 10 uM relative to control
Sequence of Cathepsin S (Homo sapiens) (P25774 115-331 limits assumed): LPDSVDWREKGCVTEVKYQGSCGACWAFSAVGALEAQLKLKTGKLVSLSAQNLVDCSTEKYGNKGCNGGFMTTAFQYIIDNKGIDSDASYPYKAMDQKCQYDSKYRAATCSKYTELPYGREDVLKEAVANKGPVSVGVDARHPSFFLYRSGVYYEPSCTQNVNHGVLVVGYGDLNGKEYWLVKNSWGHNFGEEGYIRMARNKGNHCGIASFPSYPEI

[6] = target: T2, Cathepsin L2 (Homo sapiens) (UniProt O60911); assay: Inhibition of cathepsin V (unknown origin) at 10 uM relative to control
T2 sequence (whole entry): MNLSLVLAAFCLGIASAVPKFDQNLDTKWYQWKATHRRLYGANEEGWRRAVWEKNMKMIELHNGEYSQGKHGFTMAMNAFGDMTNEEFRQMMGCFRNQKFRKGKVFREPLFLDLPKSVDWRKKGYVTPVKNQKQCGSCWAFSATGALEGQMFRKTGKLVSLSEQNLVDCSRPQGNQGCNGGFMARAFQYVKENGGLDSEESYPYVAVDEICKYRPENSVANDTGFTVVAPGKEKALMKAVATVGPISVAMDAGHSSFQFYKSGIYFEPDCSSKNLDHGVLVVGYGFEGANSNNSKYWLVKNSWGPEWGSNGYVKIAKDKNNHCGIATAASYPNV

[7] = target: Prothrombin (Homo sapiens) (UniProt P00734); assay: Inhibition of thrombin (unknown origin) at 10 uM relative to control
[8] = target: Calpain1/2 (Homo sapiens) (UniProt P17655+P07384); assay: Inhibition of calpain (unknown origin) at 1 uM relative to control; type: protein assay
[9] = target: Cathepsin B (Homo sapiens) (UniProt P07858); assay: Inhibition of cathepsin B (unknown origin) at 1 uM relative to control
[10] = target: T1, Cathepsin K (Homo sapiens); assay: Inhibition of cathepsin K (unknown origin) at 1 uM relative to control
[11] = target: Cathepsin S (Homo sapiens) (UniProt P25774); assay: Inhibition of cathepsin S (unknown origin) at 1 uM relative to control
[12] = target: T2, Cathepsin L2 (Homo sapiens); assay: Inhibition of cathepsin V (unknown origin) at 1 uM relative to control
Trypsin (Homo sapiens) [13] = target: T3, Trypsin (Homo sapiens) (UniProt P07477+P07478+P35030); assay: Inhibition of trypsin (unknown origin) at 1 uM relative to control; type: protein assay
[14] = target: Tryptase beta-2 (Homo sapiens) (UniProt P20231); assay: Inhibition of tryptase b2 (unknown origin) at 1 uM relative to control
Sequence of Tryptase beta-2 (Homo sapiens) (P20231 whole entry): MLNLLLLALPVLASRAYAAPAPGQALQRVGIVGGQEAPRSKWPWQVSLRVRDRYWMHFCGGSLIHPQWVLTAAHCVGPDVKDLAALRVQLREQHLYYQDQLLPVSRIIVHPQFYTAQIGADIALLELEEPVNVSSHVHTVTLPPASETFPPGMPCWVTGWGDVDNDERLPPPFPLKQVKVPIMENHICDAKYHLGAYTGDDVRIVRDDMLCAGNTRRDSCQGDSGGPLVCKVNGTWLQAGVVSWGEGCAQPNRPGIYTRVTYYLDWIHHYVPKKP

[15] = target: Cathepsin B (Homo sapiens) (UniProt P07858); assay: Inhibition of cathepsin B (unknown origin) at 100 nM relative to control
[16] = target: T1, Cathepsin K (Homo sapiens); assay: Inhibition of cathepsin K (unknown origin) at 100 nM relative to control
[17] = target: Cathepsin S (Homo sapiens) (UniProt P25774); assay: Inhibition of cathepsin S (unknown origin) at 100 nM relative to control
[18] = target: Prothrombin (Homo sapiens) (UniProt P00734); assay: Inhibition of thrombin (unknown origin) at 100 nM relative to control
Trypsin (Homo sapiens) [19] = target: T3, Trypsin (Homo sapiens); assay: Inhibition of trypsin (unknown origin) at 100 nM relative to control; type: protein assay
Caspase-1 (Homo sapiens) = Caspase-1 (Homo sapiens) (UniProt P29466); assay: Inhibition of caspase-1 (unknown origin) at 10 uM
Sequence of Caspase-1 (Homo sapiens) (P29466 120-297 limits assumed): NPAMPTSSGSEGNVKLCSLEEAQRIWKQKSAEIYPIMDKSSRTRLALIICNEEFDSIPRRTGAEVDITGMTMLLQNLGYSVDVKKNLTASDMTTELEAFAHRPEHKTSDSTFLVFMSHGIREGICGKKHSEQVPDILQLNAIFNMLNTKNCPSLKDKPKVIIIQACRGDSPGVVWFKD
Sequence of Caspase-1 (Homo sapiens) (P29466 317-404 limits assumed): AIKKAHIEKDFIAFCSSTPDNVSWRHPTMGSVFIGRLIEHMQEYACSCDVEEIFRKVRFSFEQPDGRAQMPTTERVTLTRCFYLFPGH

Caspase-2 (Homo sapiens) = Caspase-2 (Homo sapiens) (UniProt P42575); assay: Inhibition of caspase-2 (unknown origin) at 10 uM
Sequence of Caspase-2 (Homo sapiens) (P42575 170-325 limits assumed): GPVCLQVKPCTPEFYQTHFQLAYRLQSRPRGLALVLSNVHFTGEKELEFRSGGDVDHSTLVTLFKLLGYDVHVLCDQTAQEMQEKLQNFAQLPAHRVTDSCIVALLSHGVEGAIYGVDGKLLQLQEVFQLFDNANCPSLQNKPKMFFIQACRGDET
Sequence of Caspase-2 (Homo sapiens) (P42575 334-452 limits assumed): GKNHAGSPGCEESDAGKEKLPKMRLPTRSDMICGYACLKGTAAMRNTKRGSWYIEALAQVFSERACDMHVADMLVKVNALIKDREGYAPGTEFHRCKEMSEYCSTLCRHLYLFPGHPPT

Caspase-3 (Homo sapiens) = Caspase-3 (Homo sapiens) (UniProt P42574); assay: Inhibition of caspase-3 (unknown origin) at 10 uM
Sequence of Caspase-3 (Homo sapiens) (P42574 29-175 limits assumed): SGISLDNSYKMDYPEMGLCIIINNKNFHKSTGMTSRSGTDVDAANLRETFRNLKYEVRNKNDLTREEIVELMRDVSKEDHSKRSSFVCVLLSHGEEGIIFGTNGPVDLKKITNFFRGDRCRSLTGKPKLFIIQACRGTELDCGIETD
Sequence of Caspase-3 (Homo sapiens) (P42574 176-277 limits assumed): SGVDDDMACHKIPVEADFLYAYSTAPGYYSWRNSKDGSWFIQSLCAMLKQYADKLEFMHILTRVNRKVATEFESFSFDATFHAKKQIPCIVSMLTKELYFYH

Caspase-4 (Homo sapiens) = Caspase-4 (Homo sapiens) (UniProt P49662); assay: Inhibition of caspase-4 (unknown origin) at 10 uM
Sequence of Caspase-4 (Homo sapiens) (P49662 81-270 limits assumed): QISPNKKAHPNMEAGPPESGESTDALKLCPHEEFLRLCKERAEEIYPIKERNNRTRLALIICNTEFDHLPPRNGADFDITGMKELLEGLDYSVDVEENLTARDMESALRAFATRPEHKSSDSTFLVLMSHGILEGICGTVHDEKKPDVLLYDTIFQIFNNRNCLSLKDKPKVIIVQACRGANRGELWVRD
Sequence of Caspase-4 (Homo sapiens) (P49662 290-377 limits assumed): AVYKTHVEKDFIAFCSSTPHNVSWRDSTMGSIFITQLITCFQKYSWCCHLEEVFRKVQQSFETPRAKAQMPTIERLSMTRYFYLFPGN

Caspase-5 (Homo sapiens) = Caspase-5 (Homo sapiens) (UniProt P51878); assay: Inhibition of caspase-5 (unknown origin) at 10 uM
Sequence of Caspase-5 (Homo sapiens) (P51878 137-327 limits assumed): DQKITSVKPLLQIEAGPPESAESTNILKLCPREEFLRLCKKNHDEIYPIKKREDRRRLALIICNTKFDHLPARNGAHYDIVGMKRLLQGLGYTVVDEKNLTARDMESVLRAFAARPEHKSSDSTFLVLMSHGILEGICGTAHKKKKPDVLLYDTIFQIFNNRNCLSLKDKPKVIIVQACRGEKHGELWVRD
Sequence of Caspase-5 (Homo sapiens) (P51878 347-434 limits assumed): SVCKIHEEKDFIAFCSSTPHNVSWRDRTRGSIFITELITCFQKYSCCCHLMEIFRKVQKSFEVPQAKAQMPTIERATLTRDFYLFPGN

Caspase-6 (Homo sapiens) = Caspase-6 (Homo sapiens) (UniProt P55212); assay: Inhibition of caspase-6 (unknown origin) at 10 uM
Sequence of Caspase-6 (Homo sapiens) (P55212 24-179 limits assumed): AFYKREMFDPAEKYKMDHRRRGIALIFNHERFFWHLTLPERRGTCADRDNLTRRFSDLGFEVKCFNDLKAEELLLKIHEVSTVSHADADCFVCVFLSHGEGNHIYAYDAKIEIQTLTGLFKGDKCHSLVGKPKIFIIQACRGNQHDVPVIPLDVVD
Sequence of Caspase-6 (Homo sapiens) (P55212 194-293 limits assumed): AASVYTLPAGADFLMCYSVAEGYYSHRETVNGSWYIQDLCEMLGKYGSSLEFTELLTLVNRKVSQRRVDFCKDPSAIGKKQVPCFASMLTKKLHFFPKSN

Caspase-7 (Homo sapiens) = Caspase-7 (Homo sapiens) (UniProt P55210); assay: Inhibition of caspase-7 (unknown origin) at 10 uM
Sequence of Caspase-7 (Homo sapiens) (P55210 24-198 limits assumed): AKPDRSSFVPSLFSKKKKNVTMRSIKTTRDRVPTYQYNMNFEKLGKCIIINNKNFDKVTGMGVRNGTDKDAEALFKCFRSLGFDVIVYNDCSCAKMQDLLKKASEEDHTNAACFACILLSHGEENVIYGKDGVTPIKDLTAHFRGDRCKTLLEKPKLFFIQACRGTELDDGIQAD
Sequence of Caspase-7 (Homo sapiens) (P55210 207-303 limits assumed): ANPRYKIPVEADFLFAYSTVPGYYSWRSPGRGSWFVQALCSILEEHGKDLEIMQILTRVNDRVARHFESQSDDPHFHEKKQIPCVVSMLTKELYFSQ

Caspase-8 (Homo sapiens) = Caspase-8 (Homo sapiens) (UniProt Q14790); assay: Inhibition of caspase-8 (unknown origin) at 10 uM
Sequence of Caspase-8 (Homo sapiens) (Q14790 217-374 limits assumed): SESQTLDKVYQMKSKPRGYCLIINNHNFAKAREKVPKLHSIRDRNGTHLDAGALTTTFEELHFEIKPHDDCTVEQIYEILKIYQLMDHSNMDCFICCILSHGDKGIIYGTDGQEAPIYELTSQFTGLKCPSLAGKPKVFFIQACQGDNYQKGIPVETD
Sequence of Caspase-8 (Homo sapiens) (Q14790 385-479 limits assumed): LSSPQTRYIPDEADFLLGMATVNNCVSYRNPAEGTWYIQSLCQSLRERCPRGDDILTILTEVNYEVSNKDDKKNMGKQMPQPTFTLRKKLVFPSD

Caspase-9 (Homo sapiens) = Caspase-9 (Homo sapiens) (UniProt P55211); assay: Inhibition of caspase-9 (unknown origin) at 10 uM
[20] = target: Cathepsin D (Homo sapiens) (UniProt P07339); assay: Inhibition of cathepsin D (unknown origin) at 10 uM
[21] = target: Cathepsin G (Homo sapiens) (UniProt P08311); assay: Inhibition of cathepsin G (unknown origin) at 10 uM
Sequence of Cathepsin G (Homo sapiens) (P08311 whole entry): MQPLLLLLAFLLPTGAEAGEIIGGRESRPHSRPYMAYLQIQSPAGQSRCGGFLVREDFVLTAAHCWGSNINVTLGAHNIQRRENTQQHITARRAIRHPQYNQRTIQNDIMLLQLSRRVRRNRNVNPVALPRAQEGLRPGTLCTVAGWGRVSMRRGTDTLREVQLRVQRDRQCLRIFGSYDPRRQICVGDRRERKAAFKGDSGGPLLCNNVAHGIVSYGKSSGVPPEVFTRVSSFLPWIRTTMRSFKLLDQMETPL

[22] = target: Coagulation factor X (Homo sapiens) (UniProt P00742); assay: Inhibition of factor Xa (unknown origin) at 10 uM
Sequence of Coagulation factor X (Homo sapiens) (P00742 41-179 limits assumed): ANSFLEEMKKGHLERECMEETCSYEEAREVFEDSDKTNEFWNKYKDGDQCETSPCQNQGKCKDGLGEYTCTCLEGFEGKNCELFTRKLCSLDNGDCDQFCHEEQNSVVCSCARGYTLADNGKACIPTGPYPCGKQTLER
Sequence of Coagulation factor X (Homo sapiens) (P00742 235-488 limits assumed): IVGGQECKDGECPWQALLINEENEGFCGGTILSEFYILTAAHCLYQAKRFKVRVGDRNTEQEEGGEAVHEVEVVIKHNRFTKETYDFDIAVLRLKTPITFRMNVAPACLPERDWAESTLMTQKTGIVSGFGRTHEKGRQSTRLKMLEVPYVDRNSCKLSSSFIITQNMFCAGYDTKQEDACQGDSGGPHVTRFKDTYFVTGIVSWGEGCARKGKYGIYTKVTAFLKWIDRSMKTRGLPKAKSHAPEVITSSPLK

[23] = target: Kallikrein-1 (Homo sapiens) (UniProt P06870); assay: Inhibition of KLK1 (unknown origin) at 10 uM
Sequence of Kallikrein-1 (Homo sapiens) (P06870 25-262 limits assumed): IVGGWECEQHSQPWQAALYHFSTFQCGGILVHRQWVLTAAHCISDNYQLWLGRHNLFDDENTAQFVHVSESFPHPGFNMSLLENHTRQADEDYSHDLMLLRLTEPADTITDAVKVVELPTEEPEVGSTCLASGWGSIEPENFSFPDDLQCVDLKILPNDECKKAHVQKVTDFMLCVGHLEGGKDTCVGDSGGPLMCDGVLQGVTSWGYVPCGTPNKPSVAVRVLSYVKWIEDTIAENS

[24] = target: Kallikrein-2 (Homo sapiens) (UniProt P20151); assay: Inhibition of KLK2 (unknown origin) at 10 uM
Sequence of Kallikrein-2 (Homo sapiens) (P20151 whole entry): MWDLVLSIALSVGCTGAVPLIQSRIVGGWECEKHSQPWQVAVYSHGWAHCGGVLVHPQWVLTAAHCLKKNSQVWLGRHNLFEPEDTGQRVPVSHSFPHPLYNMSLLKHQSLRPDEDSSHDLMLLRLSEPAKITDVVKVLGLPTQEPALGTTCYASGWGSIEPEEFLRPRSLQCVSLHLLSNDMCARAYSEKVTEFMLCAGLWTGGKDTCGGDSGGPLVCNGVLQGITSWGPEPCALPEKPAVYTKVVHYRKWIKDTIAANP

Legumain (Homo sapiens) = Legumain (Homo sapiens) (UniProt Q99538); assay: Inhibition of legumain (unknown origin) at 10 uM
Sequence of Legumain (Homo sapiens) (Q99538 whole entry): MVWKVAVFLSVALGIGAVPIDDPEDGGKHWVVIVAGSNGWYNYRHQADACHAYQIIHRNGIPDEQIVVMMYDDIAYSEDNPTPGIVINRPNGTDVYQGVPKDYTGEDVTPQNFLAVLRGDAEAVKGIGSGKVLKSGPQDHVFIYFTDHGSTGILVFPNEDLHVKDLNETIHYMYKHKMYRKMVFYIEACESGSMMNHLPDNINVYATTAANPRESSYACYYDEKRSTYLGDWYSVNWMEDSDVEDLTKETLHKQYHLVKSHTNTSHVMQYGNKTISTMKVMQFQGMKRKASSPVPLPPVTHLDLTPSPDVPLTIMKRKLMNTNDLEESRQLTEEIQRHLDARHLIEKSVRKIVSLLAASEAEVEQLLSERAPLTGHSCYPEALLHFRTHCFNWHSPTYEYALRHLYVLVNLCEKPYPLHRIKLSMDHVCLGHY

[25] = target: Urokinase-type plasminogen activator (Homo sapiens) (UniProt P00749); assay: Inhibition of urokinase (unknown origin) at 10 uM
[26] = Half life in mouse microsomes; type: ADME, Microsome
[27] = Half life in mouse plasma; type: ADME, cell-free
OCI-Ly3 [28] = assay: Antitumor activity against human OCI-LY3 cells xenografted in ip dosed NOD Cg-rkdc SCID Il2rgtm1Wjl/SzJ mouse assessed as effect on tumor growth administered twice daily for 16 to 24 days measured 4 hrs post-last dose; type: functional, organism-based
OCI-Ly1 = assay: Antitumor activity against human OCI-LY1 cells xenografted in ip dosed NOD.CB17-Prkdc SCID mouse assessed as effect on tumor growth administered twice daily for 16 to 24 days measured 4 hrs post-last dose; type: functional, organism-based
[29] = Drug uptake in ip dosed mouse plasma by LC-MS/MS analysis; type: ADME, organism-based; conditions: in vivo
[30] = Drug uptake in iv dosed mouse plasma by LC-MS/MS analysis; type: ADME, organism-based; conditions: in vivo

GI50 (OCI-Ly3 [1]): 130 nM
inhibition [2]: 99.6%
inhibition [3]: 98.7%
inhibition [4]: 44.9%
inhibition [5]: 99.1%
inhibition [6]: 89.4%
inhibition [7]: 83%
inhibition [8]: 25.6%
inhibition [9]: 92.5%
inhibition [10]: 97.1%
inhibition [11]: 83.9%
inhibition [12]: 56.9%
inhibition (Trypsin (Homo sapiens) [13]): 98%
inhibition [14]: 14%
inhibition [15]: 34.2%
inhibition [16]: 63.2%
inhibition [17]: 78.2%
inhibition [18]: 14.8%
inhibition (Trypsin (Homo sapiens) [19]): 92.9%
inhibition (Caspase-1 (Homo sapiens)): Active
inhibition (Caspase-2 (Homo sapiens)): Active
inhibition (Caspase-3 (Homo sapiens)): Active
inhibition (Caspase-4 (Homo sapiens)): Active
inhibition (Caspase-5 (Homo sapiens)): Active
inhibition (Caspase-6 (Homo sapiens)): Active
inhibition (Caspase-7 (Homo sapiens)): Active
inhibition (Caspase-8 (Homo sapiens)): Active
inhibition (Caspase-9 (Homo sapiens)): Active
inhibition [20]: Active
inhibition [21]: Active
inhibition [22]: Active
inhibition [23]: Active
inhibition [24]: Active
inhibition (Legumain (Homo sapiens)): Active
inhibition [25]: Active
t1/2 [26]: > 2 h
t1/2 [27]: 4.3 h
Drug uptake [29]: Active
Drug uptake [30]: Active
Compound: CC(C)[C@H](NC(=O)c1ccc(Br)cc1)C(=O)N1CCC[C@H]1C(=O)N[C@@H](CCCNC(=N)N)C(=O)CF
Activity (OCI-Ly3 [28]): Active
Activity (OCI-Ly1): Active
